Assay results published in ChEMBL document CHEMBL1201862, “PubChem BioAssay data set” (2004).
Several values for one entry are separate records, joined by “and”; a condition that tells them apart may be missing. Equal entries are not always repeated. Activity calls are given as the source filed them.

What was measured:
[1] = molecular target: Cytochrome P450 2C9 (Homo sapiens, UniProt P11712)
[2] = tested on: H9c2; experiment: cells; format: functional, cell-based; conditions: Rattus norvegicus, H9c2, Myocardium;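 also: confirmatory concentration-response retest of ultra-high-throughput screening hits for modulation of myocardial damage; cell death induced by hydrogen peroxide oxidative stress; compound pretreatment for 60 min then peroxide exposure for 2 h; potency is for protecting the cells against peroxide damage rather than for killing them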
[3] = molecular target: Cytochrome P450 2D6 (Homo sapiens, UniProt P10635);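 also: CYP2D6 member of a cytochrome P450 panel assay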
[4] = molecular target: Cytochrome P450 2C19 (Homo sapiens, UniProt P33261); experiment: Cytochrome panel assay with activity outcomes. Panel member name: p450-cyp2c19 Compounds with AC50 equal or less than 10 uM are considered active; format: functional; conditions: read-out: AC50
[5] = molecular target: Cytochrome P450 3A4 (Homo sapiens, UniProt P08684);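 also: CYP3A4 tested as one member of a cytochrome P450 panel screen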
[6] = molecular target: T1, Cytochrome P450 1A2 (Homo sapiens, UniProt P05177);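 also: PubChem cytochrome P450 panel assay, CYP1A2 panel member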
T1 sequence (P05177 whole entry): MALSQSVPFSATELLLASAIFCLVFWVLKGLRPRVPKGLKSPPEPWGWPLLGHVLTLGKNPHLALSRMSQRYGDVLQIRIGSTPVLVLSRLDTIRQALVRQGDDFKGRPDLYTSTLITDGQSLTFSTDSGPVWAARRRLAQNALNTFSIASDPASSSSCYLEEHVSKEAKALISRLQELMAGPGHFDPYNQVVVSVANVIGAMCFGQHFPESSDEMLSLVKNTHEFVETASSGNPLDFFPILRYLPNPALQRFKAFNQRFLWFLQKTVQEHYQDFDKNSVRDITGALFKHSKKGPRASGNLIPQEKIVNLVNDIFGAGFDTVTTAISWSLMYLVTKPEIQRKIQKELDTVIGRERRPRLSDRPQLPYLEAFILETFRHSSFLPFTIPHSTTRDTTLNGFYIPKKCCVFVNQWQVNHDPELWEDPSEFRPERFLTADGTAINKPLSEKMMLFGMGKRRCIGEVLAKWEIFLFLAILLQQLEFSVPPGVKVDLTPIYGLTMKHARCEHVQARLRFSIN

[7] = molecular target: T2, Heat shock factor protein 1 (Mus musculus, UniProt P38532); experiment: enhancement of HSF1-driven luciferase signal – cell-based, NIH3T3, luminescence, dose retest, confirmation (AID 435004); format: functional;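 also: stress induced by proteasome inhibitor MG132 added 30 min after compound; luciferase reporter driven by HSF1 response element in NIH3T3 cells; actives raise luminescence as potentiators of the MG132 stress response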
T2 sequence (P38532 whole entry): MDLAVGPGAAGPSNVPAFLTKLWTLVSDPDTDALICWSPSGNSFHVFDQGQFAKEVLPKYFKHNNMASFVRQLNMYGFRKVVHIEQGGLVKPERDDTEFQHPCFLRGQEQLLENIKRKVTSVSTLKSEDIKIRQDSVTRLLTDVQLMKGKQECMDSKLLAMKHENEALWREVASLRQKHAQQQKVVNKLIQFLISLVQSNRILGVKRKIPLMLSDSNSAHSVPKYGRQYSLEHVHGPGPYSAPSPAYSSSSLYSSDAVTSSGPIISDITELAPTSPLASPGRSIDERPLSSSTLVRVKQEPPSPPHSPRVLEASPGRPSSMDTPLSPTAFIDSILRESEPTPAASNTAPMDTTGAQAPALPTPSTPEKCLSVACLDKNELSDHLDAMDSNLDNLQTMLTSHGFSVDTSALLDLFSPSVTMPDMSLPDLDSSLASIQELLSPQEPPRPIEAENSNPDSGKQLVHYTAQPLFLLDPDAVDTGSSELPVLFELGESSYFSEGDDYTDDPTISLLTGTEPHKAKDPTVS

[8] = molecular target: FAD-linked sulfhydryl oxidase ALR (Homo sapiens, UniProt P55789); experiment: ALR-catalysed DTT oxidation blockers – biochemical, H2O2 detection, luminescence, cherry-pick, dose response (AID 493248)
[9] = Luminescence Cell-Based Dose Confirmation HTS to Identify Inhibitors of Platelet Dense Granule Release. [Related pubchem assays: 1663 (Primary HTS), 1678 (Summary of Project)]; format: functional
[10] = molecular target: Luciferin 4-monooxygenase (Photinus pyralis, UniProt P08659); experiment: inhibition of purified Photinus pyralis luciferase – biochemical, luminescence, dose response (AID 1891)
[11] = molecular target: T3, Microphthalmia-associated transcription factor (Homo sapiens, UniProt O75030); experiment: reducers of TRPM1 reporter luminescence, concentration series – cell-based, SK-MEL-5, cherry-picked, set 3, MITF inhibitor project, dose response (AID 493073); format: functional;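 also: SK-MEL-5 melanoma cells with luciferase driven by the MITF target TRPM1 promoter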
T3 sequence (O75030 whole entry): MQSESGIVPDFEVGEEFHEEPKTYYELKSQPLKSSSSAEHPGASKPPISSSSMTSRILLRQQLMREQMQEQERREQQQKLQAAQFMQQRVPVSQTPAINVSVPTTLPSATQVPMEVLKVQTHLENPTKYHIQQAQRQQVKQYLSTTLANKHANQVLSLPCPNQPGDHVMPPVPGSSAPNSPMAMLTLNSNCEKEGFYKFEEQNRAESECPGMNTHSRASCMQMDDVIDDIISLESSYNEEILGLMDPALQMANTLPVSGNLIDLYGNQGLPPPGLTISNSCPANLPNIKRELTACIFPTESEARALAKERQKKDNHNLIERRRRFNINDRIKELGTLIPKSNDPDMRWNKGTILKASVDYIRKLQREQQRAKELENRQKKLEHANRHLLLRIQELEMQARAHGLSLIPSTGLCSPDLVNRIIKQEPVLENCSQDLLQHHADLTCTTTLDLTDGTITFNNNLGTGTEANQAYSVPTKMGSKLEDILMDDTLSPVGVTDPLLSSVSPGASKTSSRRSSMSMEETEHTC

Sequence of Cytochrome P450 2C9 (P11712 whole entry): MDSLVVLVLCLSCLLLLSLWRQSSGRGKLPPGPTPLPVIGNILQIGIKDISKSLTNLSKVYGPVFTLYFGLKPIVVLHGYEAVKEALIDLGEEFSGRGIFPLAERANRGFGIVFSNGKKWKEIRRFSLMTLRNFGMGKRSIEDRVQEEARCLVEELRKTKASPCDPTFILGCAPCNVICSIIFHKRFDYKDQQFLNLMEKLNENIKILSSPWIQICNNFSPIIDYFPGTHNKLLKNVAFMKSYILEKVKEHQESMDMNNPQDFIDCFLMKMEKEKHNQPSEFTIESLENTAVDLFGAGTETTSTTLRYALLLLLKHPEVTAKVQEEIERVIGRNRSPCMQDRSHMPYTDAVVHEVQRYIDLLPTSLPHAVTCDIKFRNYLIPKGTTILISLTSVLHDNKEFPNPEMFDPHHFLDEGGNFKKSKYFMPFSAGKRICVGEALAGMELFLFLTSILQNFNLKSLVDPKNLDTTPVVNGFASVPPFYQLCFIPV
Sequence of Cytochrome P450 2C19 (P33261 whole entry): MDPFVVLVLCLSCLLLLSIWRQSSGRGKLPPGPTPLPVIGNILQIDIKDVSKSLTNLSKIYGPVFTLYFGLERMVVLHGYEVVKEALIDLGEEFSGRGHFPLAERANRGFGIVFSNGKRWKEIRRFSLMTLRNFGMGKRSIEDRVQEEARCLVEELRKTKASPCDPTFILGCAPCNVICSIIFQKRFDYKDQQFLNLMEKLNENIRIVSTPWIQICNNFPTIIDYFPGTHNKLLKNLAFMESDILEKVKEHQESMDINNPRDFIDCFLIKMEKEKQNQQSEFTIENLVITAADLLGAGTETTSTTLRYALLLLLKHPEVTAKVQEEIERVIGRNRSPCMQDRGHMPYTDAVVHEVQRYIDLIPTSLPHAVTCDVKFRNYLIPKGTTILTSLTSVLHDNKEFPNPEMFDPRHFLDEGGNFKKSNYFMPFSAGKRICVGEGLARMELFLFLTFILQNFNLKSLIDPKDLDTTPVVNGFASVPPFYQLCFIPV
Sequence of Cytochrome P450 2D6 (P10635 whole entry): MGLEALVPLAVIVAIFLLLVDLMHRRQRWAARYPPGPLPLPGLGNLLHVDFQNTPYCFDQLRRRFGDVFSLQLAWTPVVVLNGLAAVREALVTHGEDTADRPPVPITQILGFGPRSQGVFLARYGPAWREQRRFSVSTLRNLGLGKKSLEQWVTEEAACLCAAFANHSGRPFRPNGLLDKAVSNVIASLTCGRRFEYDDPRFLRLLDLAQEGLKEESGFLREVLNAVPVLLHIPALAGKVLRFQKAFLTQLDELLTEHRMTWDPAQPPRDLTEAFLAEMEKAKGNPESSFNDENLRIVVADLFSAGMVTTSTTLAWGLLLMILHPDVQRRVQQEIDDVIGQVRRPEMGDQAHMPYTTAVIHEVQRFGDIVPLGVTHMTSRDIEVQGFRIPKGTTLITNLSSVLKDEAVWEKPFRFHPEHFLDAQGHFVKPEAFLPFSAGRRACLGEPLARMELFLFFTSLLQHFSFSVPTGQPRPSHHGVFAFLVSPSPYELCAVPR
Sequence of Cytochrome P450 3A4 (P08684 whole entry): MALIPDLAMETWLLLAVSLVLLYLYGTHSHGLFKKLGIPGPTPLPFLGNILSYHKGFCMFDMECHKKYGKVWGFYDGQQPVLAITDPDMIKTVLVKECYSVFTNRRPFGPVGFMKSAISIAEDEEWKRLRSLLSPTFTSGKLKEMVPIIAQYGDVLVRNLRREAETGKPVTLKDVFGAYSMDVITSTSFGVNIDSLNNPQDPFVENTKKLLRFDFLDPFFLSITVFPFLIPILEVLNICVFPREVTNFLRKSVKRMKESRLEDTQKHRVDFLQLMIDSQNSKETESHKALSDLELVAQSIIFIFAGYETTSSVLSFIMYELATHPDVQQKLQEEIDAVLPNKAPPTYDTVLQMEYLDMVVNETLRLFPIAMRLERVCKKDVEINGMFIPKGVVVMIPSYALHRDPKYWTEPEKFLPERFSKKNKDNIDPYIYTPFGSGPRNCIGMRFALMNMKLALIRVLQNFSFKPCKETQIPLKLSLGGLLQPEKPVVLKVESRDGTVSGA
Sequence of FAD-linked sulfhydryl oxidase ALR (P55789 whole entry): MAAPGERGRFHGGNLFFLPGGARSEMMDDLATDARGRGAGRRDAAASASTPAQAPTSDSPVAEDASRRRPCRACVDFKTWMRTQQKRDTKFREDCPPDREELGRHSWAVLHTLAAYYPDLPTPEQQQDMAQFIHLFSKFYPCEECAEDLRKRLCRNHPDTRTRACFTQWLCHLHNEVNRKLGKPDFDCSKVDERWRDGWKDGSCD
Sequence of Luciferin 4-monooxygenase (P08659 whole entry): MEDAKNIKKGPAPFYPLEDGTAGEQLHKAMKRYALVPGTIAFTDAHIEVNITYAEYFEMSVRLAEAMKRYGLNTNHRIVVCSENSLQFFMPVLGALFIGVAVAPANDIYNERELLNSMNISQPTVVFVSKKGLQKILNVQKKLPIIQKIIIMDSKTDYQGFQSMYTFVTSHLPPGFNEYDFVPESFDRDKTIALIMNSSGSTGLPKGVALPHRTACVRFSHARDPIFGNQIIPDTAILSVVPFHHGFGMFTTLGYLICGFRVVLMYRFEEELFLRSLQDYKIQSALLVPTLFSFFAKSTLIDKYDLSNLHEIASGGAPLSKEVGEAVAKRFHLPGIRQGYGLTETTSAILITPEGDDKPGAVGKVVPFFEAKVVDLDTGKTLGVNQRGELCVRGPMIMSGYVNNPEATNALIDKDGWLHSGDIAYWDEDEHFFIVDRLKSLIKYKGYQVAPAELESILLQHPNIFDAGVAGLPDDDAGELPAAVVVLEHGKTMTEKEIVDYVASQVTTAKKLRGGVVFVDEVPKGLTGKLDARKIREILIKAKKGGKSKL

SMILES: O=C(Nc1ccc(Cl)cc1)NC1CCCCC1
- AC50 [1]: 12.6 µM (inconclusive)

SMILES: COc1cccc(Nc2nc3ccccc3n3cnnc23)c1
- IC50 [2]: > 79 µM (inactive)

SMILES: COc1cc(CNn2nnnc2N)ccc1OCc1c(Cl)cccc1Cl
- AC50 [1]: 25.1 µM (inconclusive)

SMILES: COc1ccccc1CNc1cc(-c2ccc(C(=O)N(C)C)cc2)ncn1
- AC50 [3]: 12.6 µM (inconclusive)

SMILES: COCC(=O)N1CCC2(CC1)CN(C(=O)Nc1ccccc1)C2
- AC50 [3]: 39.8 µM (inconclusive)

SMILES: CCC/C=C(\CCC)C(NP(=O)(c1ccccc1)c1ccccc1)c1ccc(C(F)(F)F)cc1 (stereo not given)
- AC50 [4]: 39.8 µM (inconclusive)
- AC50 [1]: 12.6 µM (inconclusive)

SMILES: COc1ccc(CCN(C)CCc2ccc(OC)c(OC)c2)cc1OC
- AC50 [5]: 15.8 µM (inconclusive) and 10 µM (inconclusive)
- AC50 [3]: 31.6 µM (inconclusive) and 12.6 µM (inconclusive)

SMILES: O=C(c1ccncc1)N1CCC2(CCCN(c3ccccn3)C2)CC1
- AC50 [3]: 25.1 µM (inconclusive)

SMILES: O=C(OCc1cc(=O)n2ccsc2n1)c1ccc(O)cc1O
- IC50 [2]: > 79 µM (inactive)

SMILES: COc1cccc(Cn2c(=O)cnc3cncnc32)c1
- AC50 [5]: 20 µM (inconclusive)
- AC50 [4]: 25.1 µM (inconclusive)
- AC50 [3]: 25.1 µM (inconclusive)

SMILES: CCCC[C@@H]1C[C@H]1C(NC(=O)c1ccccc1)c1ccc(Cl)cc1 (stereo not given in full)
- AC50 [1]: 2.51 µM (inconclusive)
- AC50 [3]: 20 µM (inconclusive)

SMILES: Brc1ccc(CSc2ccc3nnc(-c4cccnc4)n3n2)cc1
- IC50 [2]: > 79 µM (inactive)

SMILES: COc1cccc(Cn2c(=O)c(-c3ccc(F)cc3)nc3cnc(N4CCNCC4)nc32)c1
- AC50 [4]: 39.8 µM (inconclusive)
- AC50 [6]: 25.1 µM (inconclusive)
- AC50 [3]: 25.1 µM (inconclusive)

SMILES: CN(C)c1ncc2ncc(=O)n(Cc3ccc(F)cc3)c2n1
- AC50 [3]: 12.6 µM (inconclusive)

SMILES: COc1ccc(Oc2ncc3nc(-c4ccc(OC)cc4)c(=O)n(Cc4cccs4)c3n2)cc1
- AC50 [5]: 3.16 µM (inconclusive)
- AC50 [1]: 3.16 µM (inconclusive)
- AC50 [6]: 15.8 µM (inconclusive)

SMILES: COC(=O)[C@@]1(Cc2ccc(OC)cc2)[C@H]2c3cc(C(=O)N(C)C)n(Cc4c(CO)ncc(C)c4O)c3C[C@H]2CN1C(=O)c1ccccc1
- AC50 [4]: 31.6 µM (inconclusive)
- AC50 [3]: 20 µM (inconclusive)

SMILES: Fc1cccc(-c2nnn3c2nc(Cl)c2ccccc23)c1
- EC50 [7]: 13.6 µM (inconclusive)

SMILES: CC(=O)c1cc(C#N)c(Oc2ccc(F)cc2)nc1C
- AC50 [4]: 10 µM (inconclusive)
- AC50 [1]: 3.98 µM (inconclusive)

SMILES: COc1ccc(S(=O)(=O)N(C)c2ccc(C(=O)NCc3ccccn3)cc2)cc1
- EC50 [7]: > 260 µM (inactive)

SMILES: CC(=O)NC1C(OCCOc2ccc(Cl)cc2Cl)OC(COC(C)=O)C(OC(C)=O)C1OC(C)=O (stereo not given)
- AC50 [4]: 15.8 µM (inconclusive)
- AC50 [1]: 4.47 µM (inconclusive)

SMILES: Cc1nc2nc(-c3ccc(F)cc3)cn2nc1C
- EC50 [7]: > 260 µM (inconclusive)

SMILES: CC1CCCC(C)N1C(=O)COC(=O)c1nnc(O)c2ccccc12 (stereo not given)
- IC50 [2]: > 79 µM (inactive)

SMILES: CN(CCCNC(=O)C1CCC(=O)N1Cc1ccccc1Cl)c1ccccc1 (stereo not given)
- AC50 [8]: 0.398 µM (active)
- AC50 [3]: 8.91 µM (inconclusive)

SMILES: O=C(OCC(=O)N1CCCCCC1)c1nnc(O)c2ccccc12
- IC50 [2]: > 79 µM (inactive)

SMILES: COc1cccc(C(=O)C2=C(O)C(=O)N(c3ccccn3)C2c2ccc(OC)c(OC)c2)c1 (stereo not given)
- AC50 [5]: 17.8 µM (inconclusive)
- AC50 [1]: 15.8 µM (inconclusive)

SMILES: CCC(C)C(=O)Nc1ncc2c(n1)CC(c1cccs1)CC2=O (stereo not given)
- EC50 [9]: > 112 µM (not active)
- EC50 [10]: > 112 µM (not active)
- EC50 [7]: > 260 µM (inactive)

SMILES: Cc1ccc(NC(=O)c2sc3ncn(CC(=O)N4CCOCC4)c(=O)c3c2C)c(Br)c1
- EC50 [7]: > 260 µM (inactive)

SMILES: CCCCc1c(O)n(-c2ccc(OC)cc2)c(SCC(=O)N2CCOCC2)nc1=O
- EC50 [7]: > 260 µM (inactive)

SMILES: O=C1CN=C(Nc2ccccc2)N1Cc1cccs1
- AC50 [3]: 25.1 µM (inconclusive)

SMILES: CNC(=O)NC(=S)NC(=O)c1ccc(OC)cc1
- AC50 [5]: 31.6 µM (inconclusive)
- AC50 [1]: 31.6 µM (inconclusive)

SMILES: O=C(Cc1c(O)c2ccccc2oc1=O)c1ccc(C(F)(F)F)cc1
- EC50 [7]: > 260 µM (inactive)

SMILES: c1ccc(N2CCCC3(CCNCC3)C2)nc1
- AC50 [5]: 15.8 µM (inconclusive)
- AC50 [4]: 20 µM (inconclusive)
- AC50 [1]: 39.8 µM (inconclusive)
- AC50 [6]: 25.1 µM (inconclusive)

SMILES: N#CCC(CNc1ncc(C(F)(F)F)cc1Cl)OC(=O)c1ccc(Cl)cc1Cl (stereo not given)
- EC50 [7]: 42.6 µM (active)

SMILES: COc1ccc(C(=O)COC(=O)Cn2[nH]c(=O)c3ccccc3c2=O)c(OC)c1
- IC50 [2]: 17.5 µM (active)

SMILES: O=C1NC2c3c(I)sc(I)c3C(=O)C2O1 (stereo not given)
- AC50 [11]: 15.5 µM (active)

SMILES: COC(=O)c1cnc2c(c(C)nn2C)c1OC
- EC50 [7]: > 260 µM (inactive)

SMILES: Fc1cccc(F)c1CN1CCN(c2ccc(Cl)cc2)CC1
- EC50 [7]: > 260 µM (inactive)

SMILES: COc1ccccc1C(=O)COC(=O)Cn1[nH]c(=O)c2ccccc2c1=O
- IC50 [2]: 18.5 µM (active)

SMILES: O=C(N/N=C/c1cn(-c2ccccc2)nc1-c1cccnc1)c1ccccc1
- IC50 [2]: > 79 µM (inactive)

SMILES: CCn1c(O)c(/C=N/N=C2CCCC2)c2ccc(C3=NNC(=O)CC3)cc21
- AC50 [5]: 7.08 µM (inconclusive)
- IC50 [2]: > 79 µM (inactive)

SMILES: O=C(O)CC/C=C\C[C@@H]1CO[C@H](c2ccccc2Cl)O[C@@H]1c1ccccc1O
- AC50 [5]: 15.8 µM (inconclusive)
- AC50 [6]: 39.8 µM (inconclusive)
- AC50 [3]: 20 µM (inconclusive)

SMILES: COc1ccc(S(=O)(=O)N/N=c2\oc3c(OC)cccc3cc2S(=O)(=O)c2ccc(C)cc2)cc1OC
- EC50 [7]: 67.1 µM (active)

SMILES: Cc1c(C(=O)NN2CCOCC2)nn(-c2ccc(Cl)cc2Cl)c1-c1ccc(I)cc1
- AC50 [6]: 31.6 µM (inconclusive)
- AC50 [3]: 12.6 µM (inconclusive)

SMILES: Cc1cc2[nH]c(=O)c3ccccc3n2n1
- IC50 [2]: > 79 µM (inactive)

SMILES: C[N+](C)(C)CC[N+]1(C)Cc2c(Cl)c(Cl)c(Cl)c(Cl)c2C1 [CHLORISONDAMINE]
- AC50 [4]: 5.01 µM (inconclusive)
- AC50 [3]: 15.8 µM (inconclusive)
